Measured values taken from publication PMC5640672, “Molecular mechanism of synergy between the antimicrobial peptides PGLa and magainin 2” (Scientific Reports, 2017).
No end group written: not given here.

Experiments:
[1] = Fluorescence ANTS/DPX vesicle leakage assay in POPE/POPG/TOCL (72:23:5); settings: POPE/POPG/TOCL (72:23:5) 100 nm vesicles, P/L ≈ 1:30, mixtures 1:1, 10 mM HEPES pH 7.5, 155 mM NaCl, 30 °C, 600 s, % of Triton-X-100 leakage, mean of n = 3
Text: It could be argued that POPC/POPG (3:1) is not the most appropriate model system to describe a bacterial membrane, which rarely contains PC lipids. We therefore also performed leakage in another lipid system, POPE/POPG/TOCL (72:23:5), which is a good model of E. coli membranes[45],[69],[70]. […] For all of the other mutants discussed below, leakage was also studied both in POPC/POPG as well as POPE/POPG/TOCL, but since the results (synergy or no synergy) were in all cases the same, the latter data will not be presented in the text. All leakage data in POPE/POPG/TOCL (72:23:5) for charge mutants are summarized in Supplementary Table S4.
(§1) Leakage of small unilamellar vesicles induced by the peptides was studied using a standard fluorescence assay.
(§2) The appropriate lipids for each experiment were dissolved in CHCl3, together with 0.02 mol-% Rhodamine-PE (Rh-PE). […] This stock suspension was subjected to 10 freeze-thaw cycles and then frozen. Appropriate aliquots of the stock lipid suspension were unfrozen each day and extruded (41 times) through polycarbonate membranes with 100 nm pore size, and stored at room temperature overnight. The fluorophore and quencher outside the vesicles were removed by size exclusion chromatography using spin-columns (Pierce centrifuge column, 2 ml, Life Technologies GmbH, Darmstadt, Germany) filled with Sephacryl 100-HR (2 min, 1500 × g). For elution, a 10 mM HEPES buffer (pH 7.5) was used, containing 155 mM NaCl to balance the osmolarity. After extrusion and removal of the external dye and quencher, the lipid concentration usually decreases. Therefore, before each set of measurements a rhodamine spectrum was recorded to determine the actual concentration of lipids, which was referenced to a spectrum taken of vesicles made by sonification without any subsequent treatment.
(§3) Fluorescence experiments were performed on a FluoroMax2 spectrofluorimeter (HORIBA Jobin Yvon, Unterhaching, Germany) equipped with a thermostated sample holder and magnetic stirrer, using an excitation wavelength of 355 nm, an emission wavelength of 508 nm, and slit widths of 5 nm. The peptide solutions were placed in elution buffer in a 1 cm standard cuvette at 30 °C. 100 s after the start of the measurement lipid vesicles were added, and the intensity of the fluorescence at 508 nm was recorded. The leakage was measured during 600 s after addition of vesicles, and the measurement was terminated after addition of Triton-X-100 (0.25% v/v), which dissolved the vesicles, and yielded 100% leakage. To determine the background signal of the vesicles themselves, several blanks were recorded per measurement set. From the leakage values of the peptides alone and of the mixture of two peptides a synergy factor SF was calculated:3 SF=L(A+B)/[L(A)+L(B)] Here, L(A) is the leakage found with peptide A alone, L(B) is the leakage found with peptide B alone, and L(A + B) is the leakage found with the mixture of peptides A and B. In all cases the P/L was the same for both peptides, alone and in the mixture, so that in the mixture the total P/L was twice that of the individual peptide measurements. […] Measurements were repeated three times and average values and standard deviations calculated for the leakage and the synergy factors. An average SF ≥ 2 was taken to indicate synergy.

[2] = Fluorescence ANTS/DPX vesicle leakage assay in POPC/POPG (3:1); settings: for Leakage, mean value: ANTS/DPX, POPC/POPG (3:1) 100 nm vesicles, P/L about 1:160 per peptide, mixtures 1:1, 10 mM HEPES pH 7.5, 155 mM NaCl, 30 °C, 600 s, % of Triton-X-100 leakage, fluorescence, mean of n = 3; for Leakage synergy in combination with MAG2-E19K / Leakage synergy in combination with MAG2-E19K-amide: POPC/POPG (3:1) vesicles, result in words
Experimental: The synergy was also investigated by a fluorescence ANTS/DPX leakage assay[24],[27],[30]. As described in the Methods section, leakage from POPC/POPG (3:1) vesicles was measured for 10 minutes after the addition of vesicles to a peptide solution. Leakage is expressed as percentage of the full leakage, which was obtained after addition of detergent. A synergy factor was defined to describe the enhancement of leakage of the mixture compared to the sum of the extent of leakage for each component. […] In general a synergy factor above 2 indicated synergy. […] In the leakage assay, this pore formation can be studied under more controlled conditions. Here we use two lipid compositions for the vesicles, which are mimicking bacterial membranes.
as §1, §2
as §3, with “SF=L(A+B)/[L(A)+L(B)]” for “SF=L(A+B)/[L(A)+L(B)] Here, L(A) is the leakage found with peptide A alone, L(B) is the leakage found with peptide B alone, and L(A + B) is the leakage found with the mixture of peptides A and B. In all cases the P/L was the same for both peptides, alone and in the mixture, so that in the mixture the total P/L was twice that of the individual peptide measurements.”

[3] = Table S4 series (charge mutants)
[4] = Table S3 series (charge mutants)
[5] = Table S8 series (PGLa-to-MSI mutants)
[6] = Table S12 series (MSI-to-PGLa mutants)
[7] = Table S7 series (PGLa-to-MSI mutants)
[8] = Table S11 series (MSI-to-PGLa mutants)

GIGKFLHSAKKFGKAFVGEIMNS-NH2 [MAG2-amide, MAG2 with amidated C-terminus]
Leakage, mean value [1, 3]: 0.8% | Leakage, mean value [2, 4]: 3.7%

GIGKFLHSAKKFGKAFVGEIMNS-OH [MAG2-WT, magainin 2, wild type antimicrobial peptide from Xenopus laevis skin, reference compound]
Leakage, mean value [1, 3]: 1.1% | Leakage, mean value [1, 5]: 1.2% | Leakage, mean value [1, 6]: 1.0% | Leakage, mean value ([1]; Table S16 series (Gly mutants)): 1.1% | Leakage, mean value [2, 4]: 3.1% | Leakage, mean value [2, 7]: 3.2% | Leakage, mean value [2, 8]: 3.2% | Leakage, mean value ([2]; Table S15 series (Gly mutants)): 3.2%

GIGKFLHSAKKFGKAFVGQIMNS-OH [MAG2-E19Q, MAG2 charge mutant E19Q]
Leakage, mean value [1, 3]: 1.1% | Leakage, mean value [2, 4]: 5.9%

GMASEAGAIAGKIAKVALKAL-NH2 [PGLa-K5E, PGLa charge mutant K5E]
Leakage, mean value [1, 3]: 2.2% | Leakage, mean value [2, 4]: 3.5%

GMASKAAAIAGKIAKVALKAL-NH2 (also: 15N-labeled Ala10) [PtM-G7A, PGLa single mutant G7A]
Leakage, mean value [1, 5]: 3.7% | Leakage, mean value [2, 7]: 2.1%

GMASKAAAIAGKIGKVALKAL-NH2 (also: 15N-labeled Ala10) [PGLa-GS1, PGLa glycine-shift mutant with GxxG motif]
Leakage, mean value ([1]; Table S16 series (Gly mutants)): 2.7% | Leakage, mean value ([2]; Table S15 series (Gly mutants)): 1.9%

GMASKAGAIA IKIAKVALKAL-NH2 [PGLa-G11I, PGLa glycine mutant G11I]
Leakage, mean value ([1]; Table S16 series (Gly mutants)): 11.4% | Leakage, mean value ([2]; Table S15 series (Gly mutants)): 11.0%

GMASKAGAIAGEIAKVALKAL-NH2 [PGLa-K12E, PGLa charge mutant K12E]
Leakage, mean value [1, 3]: 2.3% | Leakage, mean value [2, 4]: 3.1%

GMASKAGAIAGKIAEVALKAL-NH2 [PGLa-K15E, PGLa charge mutant K15E]
Leakage, mean value [1, 3]: 2.5% | Leakage synergy in combination with MAG2-E19K [2]: did not show synergy | Leakage synergy in combination with MAG2-E19K-amide [2]: did not show synergy | Leakage, mean value [2, 4]: 2.9%

GMASKAGAIAGKIAKVALEAL-NH2 [PGLa-K19E, PGLa charge mutant K19E]
Leakage, mean value [1, 3]: 1.7% | Leakage synergy in combination with MAG2-E19K [2]: did not show synergy | Leakage synergy in combination with MAG2-E19K-amide [2]: did not show synergy | Leakage, mean value [2, 4]: 3.0%

GMASKAGAIAGKIAKVALKAL-NH2 [PGLa-WT, PGLa wild type antimicrobial peptide from Xenopus laevis skin, 15N-labeled at Ala10, reference compound]
Leakage, mean value [1, 3]: 2.2% | Leakage, mean value [1, 5]: 2.2% | Leakage, mean value [1, 6]: 2.1% | Leakage, mean value ([1]; Table S16 series (Gly mutants)): 2.3% | Leakage, mean value [2, 4]: 2.3% | Leakage, mean value [2, 7]: 2.7% | Leakage, mean value [2, 8]: 2.3% | Leakage, mean value ([2]; Table S15 series (Gly mutants)): 2.2%

GMASKAIAG A IKGAKVALKAL-NH2 [PGLa-GS2, PGLa glycine-shift mutant, GxxxG on opposite helix face]
Leakage, mean value ([1]; Table S16 series (Gly mutants)): 2.2% | Leakage, mean value ([2]; Table S15 series (Gly mutants)): 2.0%

GMASKIAKIAGKIAKVALKAL-NH2 [PtM-a3, PGLa to MSI-103 mutant, three amino acids converted]
Leakage, mean value [1, 5]: 9.1% | Leakage, mean value [2, 7]: 3.3%

KIAGKAAKIAGKIAKIAGKIA-NH2 [MtP-I6A, MSI-103 to PGLa single mutant I6A]
Leakage, mean value [1, 6]: 4.8% | Leakage, mean value [2, 8]: 1.6%

KIAGKAGAIAGKIAKIAGKIA-NH2 [MtP-a3, MSI-103 triple mutant I6A, A7G, K8A]
Leakage, mean value [1, 6]: 0.9% | Leakage, mean value [2, 8]: 0.9%

KIAGKAGAIAGKIAKIALKIA-NH2 (also: 15N-labeled Ala10) [MtP-a4, MSI-103 mutant with MtP-A3 mutations plus G18L]
Leakage, mean value [1, 6]: 2.6% | Leakage, mean value [2, 8]: 2.5%

KIAGKAGKIAGKIAKIAGKIA-NH2 (also: 15N-labeled Ala10) [MtP-I6A-A7G, MSI-103 double mutant I6A, A7G]
Leakage, mean value [2, 8]: 0.8%

KIAGKIAAIAGKIAKIAGKIA-NH2 [MtP-K8A, MSI-103 to PGLa single mutant K8A]
Leakage, mean value [1, 6]: 1.8% | Leakage, mean value [2, 8]: 1.7%

KIAGKIAKIAGKIAKIAGKIA-NH2 [MSI-103, designer-made AMP ([KIAGKIA]3-NH2) derived from PGLa, reference compound]
Leakage, mean value [1, 5]: 5.6% | Leakage, mean value [2, 7]: 2.0%

KIAGKIAKIAGKIAKVALKAL-NH2 [PtM-a1, PGLa to MSI-103 mutant, segment A replaced]
Leakage, mean value [1, 5]: 18.6% | Leakage, mean value [2, 7]: 4.7%

KIAGKIGAIAGKIAKIAGKIA-NH2 (also: 15N-labeled Ala10) [MtP-K8A-A7G, MSI-103 double mutant K8A, A7G]
Leakage, mean value [2, 8]: 1.3%

KIAGKIGKIAGKIAKIALKIA-NH2 (also: 15N-labeled Ala10) [MtP-A7G-G18L, MSI-103 double mutant A7G, G18L]
Leakage, mean value [2, 8]: 4.9%

KIASKIGKIAGKIAKIAGKIA-NH2 (also: 15N-labeled Ala10) [MtP-G4S-A7G, MSI-103 double mutant G4S, A7G]
Leakage, mean value [2, 8]: 1.4%
